Structures are written as SMILES. Where “and” joins values, the source holds several entries; their conditions need not be identical. Equal values may be shown once. Where a name gives a salt, the structure may show the parent alone.

In assay [1] the target is baculovirus-expressed JAK2 kinase (Homo sapiens, UniProt O60674). As to the kind of experiment: biochemical. The conditions noted are these: 0.2 μM ATP; read-out: JAK2 Potency. An outline of the steps:
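IC50 derived by variable-slope sigmoidal fit of percent inhibition against log compound concentration. Baculovirus-expressed JAK2 (15 ng/mL) phosphorylated a plate-bound biotinylated 15-mer peptide for 20 min at room temperature; detection by time-resolved fluorescence.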

Assay [2] deals with baculovirus-expressed ALK (Homo sapiens, UniProt Q9UM73). In words: ALK kinase inhibition, TRF/ELISA. In kind it is biochemical. The following applies: read-out: ALK Potency. An outline of the steps: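 Eu-PT66 anti-phosphotyrosine TRF read-out measured phosphorylation of plate-bound GST-PLC-γ (coated at 10 μg/mL). The phosphorylation was driven by 30 ng/mL ALK for 15 minutes at 37° C.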
baculovirus-expressed ALK, sequence (Q9UM73 19-1620): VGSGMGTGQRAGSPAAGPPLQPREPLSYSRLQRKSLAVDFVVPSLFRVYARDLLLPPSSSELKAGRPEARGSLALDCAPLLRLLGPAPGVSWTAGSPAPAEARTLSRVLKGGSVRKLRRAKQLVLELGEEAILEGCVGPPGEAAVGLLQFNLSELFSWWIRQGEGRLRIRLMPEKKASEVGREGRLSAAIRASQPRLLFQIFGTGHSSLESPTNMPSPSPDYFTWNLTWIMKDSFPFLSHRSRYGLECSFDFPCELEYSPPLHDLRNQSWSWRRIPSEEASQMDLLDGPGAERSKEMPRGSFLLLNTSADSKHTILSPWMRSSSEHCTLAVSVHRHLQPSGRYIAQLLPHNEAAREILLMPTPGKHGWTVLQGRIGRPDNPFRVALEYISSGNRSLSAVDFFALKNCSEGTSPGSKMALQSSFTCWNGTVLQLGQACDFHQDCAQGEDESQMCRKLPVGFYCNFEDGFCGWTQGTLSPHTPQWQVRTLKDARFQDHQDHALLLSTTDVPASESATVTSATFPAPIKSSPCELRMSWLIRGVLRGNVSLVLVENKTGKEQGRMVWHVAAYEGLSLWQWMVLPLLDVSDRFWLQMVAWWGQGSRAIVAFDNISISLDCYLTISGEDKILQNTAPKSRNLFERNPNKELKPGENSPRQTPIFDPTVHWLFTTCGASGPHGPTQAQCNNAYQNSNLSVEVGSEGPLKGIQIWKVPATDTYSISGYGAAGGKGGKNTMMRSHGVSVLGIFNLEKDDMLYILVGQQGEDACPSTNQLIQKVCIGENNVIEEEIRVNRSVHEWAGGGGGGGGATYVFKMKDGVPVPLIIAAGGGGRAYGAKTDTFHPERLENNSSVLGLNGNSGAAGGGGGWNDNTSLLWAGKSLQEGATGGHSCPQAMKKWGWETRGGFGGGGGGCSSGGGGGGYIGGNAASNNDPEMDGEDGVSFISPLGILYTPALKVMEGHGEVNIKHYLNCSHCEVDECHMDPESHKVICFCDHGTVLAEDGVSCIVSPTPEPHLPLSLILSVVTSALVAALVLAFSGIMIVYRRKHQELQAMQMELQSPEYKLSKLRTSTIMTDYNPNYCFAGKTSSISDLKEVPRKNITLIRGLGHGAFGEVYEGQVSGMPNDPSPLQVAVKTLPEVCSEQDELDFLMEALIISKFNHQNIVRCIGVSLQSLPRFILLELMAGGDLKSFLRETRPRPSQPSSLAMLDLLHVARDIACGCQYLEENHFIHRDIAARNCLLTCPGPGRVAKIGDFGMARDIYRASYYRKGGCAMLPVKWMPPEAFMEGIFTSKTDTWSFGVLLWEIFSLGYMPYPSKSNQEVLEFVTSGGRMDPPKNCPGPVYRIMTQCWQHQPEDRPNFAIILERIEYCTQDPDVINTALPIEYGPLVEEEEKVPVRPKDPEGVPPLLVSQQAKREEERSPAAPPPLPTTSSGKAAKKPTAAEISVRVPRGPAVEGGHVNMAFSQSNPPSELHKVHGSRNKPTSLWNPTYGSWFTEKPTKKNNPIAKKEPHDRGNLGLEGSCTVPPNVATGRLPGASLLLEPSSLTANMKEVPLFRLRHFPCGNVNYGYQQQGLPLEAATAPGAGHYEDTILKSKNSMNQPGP
On the technique in general: ELISA stands for enzyme-linked immunosorbent assay.

baculovirus-expressed JAK2 kinase, sequence (O60674 whole entry): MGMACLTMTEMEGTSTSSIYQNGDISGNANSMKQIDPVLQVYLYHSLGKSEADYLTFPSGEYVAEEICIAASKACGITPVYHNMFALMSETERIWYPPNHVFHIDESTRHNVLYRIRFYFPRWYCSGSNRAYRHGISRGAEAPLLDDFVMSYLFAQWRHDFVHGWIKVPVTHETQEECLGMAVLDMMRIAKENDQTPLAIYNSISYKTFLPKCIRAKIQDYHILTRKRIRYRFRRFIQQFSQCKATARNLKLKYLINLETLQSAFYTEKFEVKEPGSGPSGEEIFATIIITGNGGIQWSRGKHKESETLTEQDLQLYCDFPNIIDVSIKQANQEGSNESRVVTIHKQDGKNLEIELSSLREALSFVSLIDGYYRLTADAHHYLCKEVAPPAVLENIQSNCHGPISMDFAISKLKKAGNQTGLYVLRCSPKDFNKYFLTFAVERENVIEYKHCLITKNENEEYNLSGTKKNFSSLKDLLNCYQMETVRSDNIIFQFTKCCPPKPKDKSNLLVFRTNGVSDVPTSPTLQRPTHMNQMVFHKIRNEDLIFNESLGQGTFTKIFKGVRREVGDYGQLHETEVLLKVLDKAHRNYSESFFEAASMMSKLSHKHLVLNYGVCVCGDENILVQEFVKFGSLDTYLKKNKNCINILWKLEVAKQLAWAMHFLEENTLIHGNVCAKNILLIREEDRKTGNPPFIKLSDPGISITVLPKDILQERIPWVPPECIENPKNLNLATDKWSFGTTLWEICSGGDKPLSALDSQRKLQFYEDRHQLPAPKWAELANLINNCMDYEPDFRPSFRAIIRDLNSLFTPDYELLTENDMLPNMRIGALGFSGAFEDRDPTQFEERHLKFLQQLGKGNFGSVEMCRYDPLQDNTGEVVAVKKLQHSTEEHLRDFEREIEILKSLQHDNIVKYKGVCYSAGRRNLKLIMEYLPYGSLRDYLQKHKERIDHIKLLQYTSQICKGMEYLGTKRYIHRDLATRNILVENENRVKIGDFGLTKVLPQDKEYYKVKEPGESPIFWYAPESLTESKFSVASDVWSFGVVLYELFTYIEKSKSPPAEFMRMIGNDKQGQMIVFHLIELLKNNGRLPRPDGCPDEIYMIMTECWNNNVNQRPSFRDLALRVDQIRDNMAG

On to `CN(C)C(=O)[C@@H]1[C@H](Nc2c(Cl)cnc3[nH]c(-c4sc(N5CC[C@@H](O)C5)nc4Cl)nc23)[C@H]2C=C[C@@H]1C2` [Compound CLXVIII, (1S,2S,3R,4R)-3-{6-Chloro-2-[4-chloro-2-((R)-3-hydroxy-pyrrolidin-1-yl)-thiazol-5-yl]-3H-imidazo[4,5-b]pyridin-7-ylamino}-bicyclo[2.2.1]hept-5-ene-2-carboxylic acid dimethylamide], for which the IC50 in assay [1] and in assay [2] was under 100 nM throughout.
Consider `Cc1ncc(-c2nc3c(N[C@H]4[C@@H](C(N)=O)[C@@H]5C=C[C@H]4C5)c(Cl)cnc3[nH]2)s1` [Compound CCVIII, (1S,2S,3R,4R)-3-(6-chloro-2-(2-methylthiazol-5-yl)-3H-imidazo[4,5-b]pyridin-7-ylamino)bicyclo[2.2.1]hept-5-ene-2-carboxamide], for which the IC50 is under 100 nM in assay [1] and 100 to 1000 nM in assay [2].
On the same counts, the results for `NC(=O)[C@@H]1[C@H](Nc2c(Cl)cnc3[nH]c(-c4ccnc(N5CCOCC5)c4)nc23)[C@H]2C=C[C@@H]1C2` [Compound CXXVI, (1S,2S,3R,4R)-3-[6-Chloro-2-(2-morpholin-4-yl-pyridin-4-yl)-3H-imidazo[4,5-b]pyridin-7-ylamino]-bicyclo[2.2.1]hept-5-ene-2-carboxylic acid amide] are under 100 nM and 100 to 1000 nM.
Taken in the same sequence, the figures for `CC(C)NC(=O)[C@@H]1[C@H](Nc2c(Cl)cnc3[nH]c(-c4sc(N5CCCC5)nc4Cl)nc23)[C@H]2C=C[C@@H]1C2` [Compound CLXV, (1S,2S,3R,4R)-3-[6-Chloro-2-(4-chloro-2-pyrrolidin-1-yl-thiazol-5-yl)-3H-imidazo[4,5-b]pyridin-7-ylamino]-bicyclo[2.2.1]hept-5-ene-2-carboxylic acid isopropylamide] were 1000 to 10000 nM and 100 to 1000 nM.
On the same counts, the results for `CC(C)(C)OC(=O)N1CCC(c2nc3c(N[C@H]4[C@@H](C(N)=O)[C@@H]5C=C[C@H]4C5)c(Cl)cnc3[nH]2)CC1` [Compound CCXV, tert-butyl 4-(7-((1R,2R,3S,4S)-3-carbamoylbicyclo[2.2.1]hept-5-en-2-ylamino)-6-chloro-3H-imidazo[4,5-b]pyridin-2-yl)piperidine-1-carboxylate] are 1000 to 10000 nM and 1000 to 10000 nM.
For `NC(=O)[C@@H]1[C@H](Nc2c(Cl)cnc3[nH]c(-c4cncs4)nc23)[C@H]2C=C[C@@H]1C2` [Compound CCVII, (1S,2S,3R,4R)-3-(6-chloro-2-(thiazol-5-yl)-3H-imidazo[4,5-b]pyridin-7-ylamino)bicyclo[2.2.1]hept-5-ene-2-carboxamide], the figures for the IC50 in assay [1] and in assay [2] were under 100 nM and 100 to 1000 nM, respectively.
As to `NC(=O)[C@@H]1[C@H](Nc2c(Cl)cnc3[nH]c(-c4cccc(OCCN5CCOCC5)c4)nc23)[C@H]2C=C[C@@H]1C2` [Compound CCXXXVII, (1S,2S,3R,4R)-3-(6-chloro-2-(3-(2-morpholinoethoxy)phenyl)-3H-imidazo[4,5-b]pyridine-7-ylamino)pyridin[2.2.1]hept-5-ene-2-carboxamide], the IC50 in assay [1] was < 100 nM and 100 to 1000 nM; in assay [2], under 100 nM.
Take `CN(C)C(=O)[C@@H]1[C@H](Nc2c(Cl)cnc3[nH]c(-c4sc(N5CCOCC5)nc4Cl)nc23)[C@H]2C=C[C@@H]1C2` [Compound CLXII, (1S,2S,3R,4R)-3-[6-Chloro-2-(4-chloro-2-morpholin-4-yl-thiazol-5-yl)-3H-imidazo[4,5-b]pyridin-7-ylamino]-bicyclo[2.2.1]hept-5-ene-2-carboxylic acid dimethylamide]: the IC50 in assay [1] and in assay [2] was under 100 nM throughout.
On to `NC(=O)[C@@H]1[C@H](Nc2c(Cl)cnc3[nH]c(-c4ccc(N5CCNCC5)cc4)nc23)[C@H]2C=C[C@@H]1C2` [Compound XV, (1S,2S,3R,4R)-3-[6-Chloro-2-(4-piperazin-1-yl-phenyl)-3H-imidazo[4,5-b]pyridin-7-ylamino]-bicyclo[2.2.1]hept-5-ene-2-carboxylic acid amide trifluoroacetic acid salt], for which the IC50 in assay [1] and in assay [2] was under 100 nM in each case.
Consider `COc1cc(CN2CCOCC2)ccc1Nc1nc2c(N[C@H]3[C@@H](C(N)=O)[C@@H]4C=C[C@H]3C4)c(Cl)cnc2[nH]1` [Compound LXIX, (1S,2S,3R,4R)-3-[6-Chloro-2-(2-methoxy-4-morpholin-4-ylmethyl-phenylamino)-3H-imidazo[4,5-b]pyridine-7-ylamino]-bicyclo[2.2.1]hept-5-ene-2-carboxylic acid amide], for which the IC50 in assay [1] and in assay [2] was under 100 nM each time.
In the case of `NC(=O)COc1cccc(-c2nc3c(N[C@H]4[C@@H](C(N)=O)[C@@H]5C=C[C@H]4C5)c(Cl)cnc3[nH]2)c1` [Compound CCXXXVIII, (1S,2S,3R,4R)-3-(2-(3-(2-amino-2-oxoethoxy)phenyl)-6-chloro-3H-imidazo[4,5-b]pyridin-7-ylamino)bicyclo[2.2.1]hept-5-ene-2-carboxamide], the IC50 in assay [1] is under 100 nM; in assay [2] it was 100 to 1000 nM.
As for `Cn1cc(-c2nc3c(N[C@H]4[C@@H](C(N)=O)[C@@H]5CC[C@H]4O5)c(Cl)cnc3[nH]2)cn1` [Compound CCV, (1S,2R,3S,4R)-3-(6-chloro-2-(1-methyl-1H-pyrazol-4-yl)-3H-imidazo[4,5-b]pyridin-7-ylamino)-7-oxabicyclo[2.2.1]heptane-2-carboxamide], the IC50 was 100 to 1000 nM in assay [1] and over 10000 nM in assay [2].
On the same counts, the results for `COc1ccc(-c2nc3c(N[C@H]4[C@@H](C(N)=O)[C@@H]5C=C[C@H]4C5)c(Cl)cnc3[nH]2)c(C2CCN(C[C@H](O)CO)CC2)c1` [Compound XXXIII] are 100 to 1000 nM and 100 to 1000 nM.
`COc1cc(N2CCOCC2)ccc1-c1nc2c(N3C[C@@H]4C[C@H]3CN4C(=O)OC(C)(C)C)c(Cl)cnc2[nH]1` [Compound XXXVI, (1S,4S)-5-[6-Chloro-2-(2-methoxy-4-morpholinj-4-yl-phenyl)-3H-imidazol-[4,5-b]pyridine-7-yl]-2,5-diaza-bicyclo[2.2.1]heptane-2-carboxylic acid tert-butyl ester]: the IC50 in assay [1] was 1000 to 10000 nM; in assay [2] it was over 10000 nM.
Taken in the same sequence, the figures for `NC(=O)[C@@H]1[C@H](Nc2c(Br)cnc3[nH]c(-c4sc(N5CCCC5)nc4Cl)nc23)[C@H]2C=C[C@@H]1C2` [Compound CLXVII, (1S,2S,3R,4R)-3-[6-Bromo-2-(4-chloro-2-pyrrolidin-1-yl-thiazol-5-yl)-3H-imidazo[4,5-b]pyridin-7-ylamino]-bicyclo[2.2.1]hept-5-ene-2-carboxylic acid amide] were under 100 nM and under 100 nM.
On the same counts, the results for `Cn1cc(-c2nc3c(N[C@@]45CCC(C)(C(O)C4)C5(C)C)c(Cl)cnc3[nH]2)cn1` (stereo partly drawn) [Compound CCII, (4S)-4-(6-chloro-2-(1-methyl-1H-pyrazol-4-yl)-3H-imidazo[4,5-b]pyridin-7-ylamino)-1,7,7-trimethylbicyclo[2.2.1]heptan-2-ol] are under 100 nM and over 10000 nM.
On the same counts, the results for `N#Cc1ccc(-c2nc3c(N[C@H]4[C@@H](C(N)=O)[C@@H]5C=C[C@H]4C5)c(Br)cnc3[nH]2)cc1` [Compound CXLVII, (1S,2S,3R,4R)-3-[6-Bromo-2-(4-cyano-phenyl)-3H-imidazo[4,5-b]pyridin-7-ylamino]-bicyclo[2.2.1]hept-5-ene-2-carboxylic acid amide] are under 100 nM and 100 to 1000 nM.
Regarding `NC(=O)[C@@H]1[C@H](Nc2c(Cl)cnc3[nH]c(-c4ccccc4F)nc23)[C@H]2C=C[C@@H]1C2` [Compound CXXVII, (1S,2S,3R,4R)-3-[6-Chloro-2-(2-fluoro-phenyl)-3H-imidazo[4,5-b]pyridin-7-ylamino]-bicyclo[2.2.1]hept-5-ene-2-carboxylic acid amide], the IC50 in assay [1] is under 100 nM; in assay [2] it was 100 to 1000 nM.
On to `NC(=O)[C@@H]1[C@H](Nc2c(Cl)cnc3[nH]c(C4CCCNC4)nc23)[C@H]2C=C[C@@H]1C2` (single isomer, unassigned) [XIII], for which the IC50 in assay [1] and in assay [2] was over 10000 nM in each case.
Turning to `NC(=O)[C@@H]1[C@H](Nc2c(Cl)cnc3[nH]c(-c4ccc(C(=O)N5CCNC(C(=O)O)C5)cc4)nc23)[C@H]2C=C[C@@H]1C2` (stereo partly drawn) [Compound CCXXVI, 4-(4-(7-((1R,2R,3S,4S)-3-carbamoylbicyclo[2.2.1]hept-5-en-2-ylamino)-6-chloro-3H-imidazo[4,5-b]211pyridine-2-yl)benzoyl)piperazine-2-carboxylic acid], the IC50 in assay [1] and in assay [2] was under 100 nM throughout.
As for `CC(O)CN1CCN(C(=O)COc2cccc(-c3nc4c(N[C@H]5[C@@H](C(N)=O)[C@@H]6C=C[C@H]5C6)c(Cl)cnc4[nH]3)c2)CC1` (stereo partly drawn) [Compound CCXLI, (1S,2S,3R,4R)-3-(6-chloro-2-(3-(2-(4-(2-hydroxypropyl)piperazin-1-yl)-2-oxoethoxy)phenyl)-3H-imidazo[4,5-b]pyridin-7-ylamino)bicyclo[2.2.1]hept-5-ene-2-carboxamide], the IC50 in assay [1] was under 100 nM; in assay [2] it was 100 to 1000 nM.
On the same counts, the results for `O=C(NC1CC1)[C@@H]1[C@H](Nc2c(Cl)cnc3[nH]c(-c4sc(N5CCCC5)nc4Cl)nc23)[C@H]2C=C[C@@H]1C2` [Compound CLXXII, (1S,2S,3R,4R)-3-[6-Chloro-2-(4-chloro-2-pyrrolidin-1-yl-thiazol-5-yl)-3H-imidazo[4,5-b]pyridin-7-ylamino]-bicyclo[2.2.1]hept-5-ene-2-carboxylic acid cyclopropylamide] are 100 to 1000 nM and under 100 nM.
On the same counts, the results for `COc1ccncc1-c1nc2c(N[C@H]3[C@@H](C(N)=O)[C@@H]4C=C[C@H]3C4)c(Cl)cnc2[nH]1` [Compound XXXV, (1S,2S,3R,4R)-3-[6-Chloro-2-(4-methoxy-pyridin-3-yl)-3H-imidazo[4,5-b]pyridine-7-ylamino]-bicyclo[2.2.1]hept-5-ene-2-carboxylic acid amide] are 100 to 1000 nM and 100 to 1000 nM.

Values taken from US9238656B2, “Imidazo[4,5-b]pyridine derivatives as ALK and JAK modulators for the treatment of proliferative disorders” (priority 2012, dated 2016).
